Non-standard residues stand in square brackets, D forms with d. Residues, ends and D or L forms follow the SMILES beside them. Groups on a side chain read outwards from the residue. *: point of attachment. Phe(4-NH2) = Nc1ccc(C[C@H](N)C(=O)O)cc1; X1 = CCCCCCN(CC(=O)*)C(=O)[C@H](N)CCCCN; Aib = CC(C)(N)C(=O)O; Sar = CNCC(=O)O
What was measured:
Insulin Receptor [1] = molecular target: T1, Insulin Receptor (Homo sapiens, UniProt P06213); assay: Insulin receptor phosphorylation assay (receptor transfected HEK293 cells); assay type: cell-based; set-up: expressed in transfected cells; host or cells: HEK293; settings: Table 10; IGF-1 receptor EC50 versus insulin receptor EC50
[2] = Dipeptide half life on IGF1 dipeptide extended (p-NH2-F)A19 amide derivatives in PBS (HPLC); assay type: physicochemical
Method: IGF-1 peptides was measured to determine the impact of the peptide sequence or heteroduplex on the dipeptide cleavage.
Accordingly, the IGF1A chain alone was determined to be a good model for the study of pro-drug half life on IGF1 B:A (Y^B16L^B17) derivative peptides. […] For simplicity, prodrug half lives were determined using only the IGF1 A chain in the absence of the B chain. The half lives of each propeptide was determined as described in Example 5.
The IGF^B16B17 derivative peptide prodrugs were incubated in PBS, pH 7.4 at 37° C. and at predetermined time intervals an aliquot was taken and further degradation was quenched with 0.1% TFA and the aliquot was subjected to analytical HPLC analysis. Peaks a and b, representing the prodrug and active forms of the IGF^B16B17 derivative peptide were identified with LC-MS and quantified by integration of peak area an HPLC. FIGS. 9A-9C show the output of an HPLC analysis of the degradation of the IGF^B16B17 derivativepeptide prodrug: IGF1A(Ala)^6,7,11,20(Aib-Pro-pNH-F)^19. Aliquots were taken at 20 minutes (FIG. 9A), 81 minutes (FIG. 9B) and 120 minutes (FIG. 9C) after beginning the incubation of the prodrug in PBS.

Insulin Receptor [3] = molecular target: T1, Insulin Receptor; assay: Insulin receptor binding assay (competition, scintillation proximity); settings: compared with native insulin

T1 sequence (P06213 28-758 limits assumed): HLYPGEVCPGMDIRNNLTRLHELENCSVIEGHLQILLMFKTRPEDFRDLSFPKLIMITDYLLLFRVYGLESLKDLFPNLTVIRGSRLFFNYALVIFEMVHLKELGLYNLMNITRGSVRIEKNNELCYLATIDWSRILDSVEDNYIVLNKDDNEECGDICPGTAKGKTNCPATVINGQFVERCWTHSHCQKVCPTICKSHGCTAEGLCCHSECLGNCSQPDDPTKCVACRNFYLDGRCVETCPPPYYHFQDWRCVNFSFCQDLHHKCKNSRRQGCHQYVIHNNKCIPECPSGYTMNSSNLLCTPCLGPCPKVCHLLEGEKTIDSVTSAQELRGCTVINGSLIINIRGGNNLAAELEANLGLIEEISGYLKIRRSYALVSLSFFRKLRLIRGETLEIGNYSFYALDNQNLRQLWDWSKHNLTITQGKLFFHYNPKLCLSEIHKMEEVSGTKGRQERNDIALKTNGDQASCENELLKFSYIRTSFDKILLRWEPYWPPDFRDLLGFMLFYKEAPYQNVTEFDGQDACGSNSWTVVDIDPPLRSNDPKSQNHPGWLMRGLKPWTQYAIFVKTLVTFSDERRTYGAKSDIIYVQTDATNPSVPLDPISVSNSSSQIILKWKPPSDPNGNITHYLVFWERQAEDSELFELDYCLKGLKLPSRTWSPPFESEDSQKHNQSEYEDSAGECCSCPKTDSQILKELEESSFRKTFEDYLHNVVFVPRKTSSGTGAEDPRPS
T1 sequence (P06213 763-1382 partner limits assumed): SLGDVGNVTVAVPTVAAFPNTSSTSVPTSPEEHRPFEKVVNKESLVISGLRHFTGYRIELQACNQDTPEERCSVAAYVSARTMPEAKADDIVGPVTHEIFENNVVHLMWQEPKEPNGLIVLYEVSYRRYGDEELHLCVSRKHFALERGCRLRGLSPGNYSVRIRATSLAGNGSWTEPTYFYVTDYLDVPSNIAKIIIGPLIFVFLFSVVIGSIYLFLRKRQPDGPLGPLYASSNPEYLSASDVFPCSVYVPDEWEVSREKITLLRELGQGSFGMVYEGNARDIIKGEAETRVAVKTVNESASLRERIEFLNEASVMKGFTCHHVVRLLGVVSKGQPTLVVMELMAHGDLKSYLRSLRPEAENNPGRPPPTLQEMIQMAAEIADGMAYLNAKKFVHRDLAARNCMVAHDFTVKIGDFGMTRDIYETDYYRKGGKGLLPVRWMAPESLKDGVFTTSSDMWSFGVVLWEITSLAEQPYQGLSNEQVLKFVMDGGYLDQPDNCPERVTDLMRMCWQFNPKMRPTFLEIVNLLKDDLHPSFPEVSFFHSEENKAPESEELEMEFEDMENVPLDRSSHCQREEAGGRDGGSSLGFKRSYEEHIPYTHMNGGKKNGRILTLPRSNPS

SMILES	Selective Ratio (Insulin Receptor [1])	Half Life ([2]; buffer)	Half Life, PBS ([2]; buffer)	also measured
CC[C@H](C)[C@H](NC(=O)CN)C(=O)N[C@H](C(=O)N[C@@H](CC(=O)O)C(=O)N[C@@H](CCC(=O)O)C(=O)N[C@H]1CSSC[C@@H]2NC(=O)[C@H](CO)NC(=O)[C@H](C)NC(=O)[C@H](Cc3c[nH]cn3)NC(=O)[C@H](CSSC[C@H](NC(=O)[C@H](CC(C)C)NC(=O)[C@H](Cc3c[nH]cn3)NC(=O)[C@H](CCC(=O)O)NC(=O)[C@@H]3CCCN3C(=O)CN)C(=O)NCC(=O)N[C@@H](C)C(=O)N[C@@H](CC(=O)O)C(=O)N[C@@H](CC(C)C)C(=O)N[C@@H](C(C)C)C(=O)N[C@@H](CC(=O)O)C(=O)N[C@@H](C)C(=O)N[C@@H](CC(C)C)C(=O)N[C@@H](Cc3ccc(O)cc3)C(=O)N[C@@H](CC(C)C)C(=O)N[C@@H](C(C)C)C(=O)N[C@H](C(=O)NCC(=O)N[C@@H](CC(=O)O)C(=O)N[C@@H](C)C(=O)NCC(=O)N[C@@H](Cc3ccccc3)C(=O)N[C@@H](Cc3ccc(O)cc3)C(N)=O)CSSC[C@@H](C(=O)N[C@@H](CC(N)=O)C(=O)O)NC(=O)[C@H](Cc3ccc(O)cc3)NC(=O)[C@H](CCSC)NC(=O)[C@H](CCC(=O)O)NC(=O)[C@H](CC(C)C)NC(=O)[C@H](CCCNC(=N)N)NC(=O)[C@H](CCCNC(=N)N)NC(=O)[C@H](CC(C)C)NC(=O)[C@H](CC(=O)O)NC2=O)NC1=O)C(C)C	32.54	–	–	–
CC[C@H](C)[C@H](NC(=O)CN)C(=O)N[C@H](C(=O)N[C@@H](CC(=O)O)C(=O)N[C@@H](CCC(=O)O)C(=O)N[C@H]1CSSC[C@@H]2NC(=O)[C@H](CO)NC(=O)[C@H](C)NC(=O)[C@H](Cc3c[nH]cn3)NC(=O)[C@H](CSSC[C@H](NC(=O)[C@H](CC(C)C)NC(=O)[C@H](Cc3c[nH]cn3)NC(=O)[C@H](CCC(=O)O)NC(=O)[C@@H]3CCCN3C(=O)CN)C(=O)NCC(=O)N[C@@H](C)C(=O)N[C@@H](CC(=O)O)C(=O)N[C@@H](CC(C)C)C(=O)N[C@@H](C(C)C)C(=O)N[C@@H](CC(=O)O)C(=O)N[C@@H](C)C(=O)N[C@@H](CC(C)C)C(=O)N[C@@H](Cc3ccc(O)cc3)C(=O)N[C@@H](CC(C)C)C(=O)N[C@@H](C(C)C)C(=O)N[C@H](C(=O)NCC(=O)N[C@@H](CC(=O)O)C(=O)N[C@@H](CCCNC(=N)N)C(=O)NCC(=O)N[C@@H](Cc3ccccc3)C(=O)N[C@@H](Cc3ccc(O)cc3)C(N)=O)CSSC[C@@H](C(=O)N[C@@H](CC(N)=O)C(=O)O)NC(=O)[C@H](Cc3ccc(O)cc3)NC(=O)[C@H](CCSC)NC(=O)[C@H](CCC(=O)O)NC(=O)[C@H](CC(C)C)NC(=O)[C@H](CCCNC(=N)N)NC(=O)[C@H](CCCNC(=N)N)NC(=O)[C@H](CC(C)C)NC(=O)[C@H](CC(=O)O)NC2=O)NC1=O)C(C)C	2.81	–	–	–
CC[C@H](C)[C@H](NC(=O)CN)C(=O)N[C@H](C(=O)N[C@@H](CC(=O)O)C(=O)N[C@@H](CCC(=O)O)C(=O)N[C@@H](C)C(=O)N[C@@H](C)C(=O)N[C@@H](Cc1ccccc1)C(=O)N[C@@H](CCCNC(=N)N)C(=O)N[C@@H](CO)C(=O)N[C@@H](C)C(=O)N[C@@H](CC(=O)O)C(=O)N[C@@H](CC(C)C)C(=O)N[C@@H](CCCNC(=N)N)C(=O)N[C@@H](CCCNC(=N)N)C(=O)N[C@@H](CC(C)C)C(=O)N[C@@H](CCC(=O)O)C(=O)N[C@@H](CCSC)C(=O)N[C@@H](Cc1ccc(NC(=O)[C@@H]2CCCN2C(=O)C(C)(C)N)cc1)C(=O)N[C@@H](C)C(=O)N[C@@H](C)C(N)=O)C(C)C [AiB Pro] (H-GIVDEAAFRSADLRRLEM[Phe(4-NH2)]([Pro-Aib])AA-NH2)	–	2.2 h	2.2 h	degradation of prodrug to active form (HPLC), in words ([2]; pH 7.4): spontaneous, non-enzymatic conversion
CC[C@H](C)[C@H](NC(=O)CN)C(=O)N[C@H](C(=O)N[C@@H](CC(=O)O)C(=O)N[C@@H](CCC(=O)O)C(=O)N[C@@H](C)C(=O)N[C@@H](C)C(=O)N[C@@H](Cc1ccccc1)C(=O)N[C@@H](CCCNC(=N)N)C(=O)N[C@@H](CO)C(=O)N[C@@H](C)C(=O)N[C@@H](CC(=O)O)C(=O)N[C@@H](CC(C)C)C(=O)N[C@@H](CCCNC(=N)N)C(=O)N[C@@H](CCCNC(=N)N)C(=O)N[C@@H](CC(C)C)C(=O)N[C@@H](CCC(=O)O)C(=O)N[C@@H](CCSC)C(=O)N[C@@H](Cc1ccc(NC(=O)[C@H]2CCCN2C(=O)C(C)(C)N)cc1)C(=O)N[C@@H](C)C(=O)N[C@@H](C)C(N)=O)C(C)C [AiB dPro] (H-GIVDEAAFRSADLRRLEM[Phe(4-NH2)]([dP-Aib])AA-NH2)	–	1.9 h	2.1 h	–
CC[C@H](C)[C@H](NC(=O)CNC(=O)[C@@H]1CCCN1C(=O)[C@H](C)N)C(=O)N[C@H](C(=O)N[C@@H](CC(=O)O)C(=O)N[C@@H](CCC(=O)O)C(=O)N[C@H]1CSSC[C@@H]2NC(=O)[C@H](CO)NC(=O)[C@H](CCCNC(=N)N)NC(=O)[C@H](Cc3ccccc3)NC(=O)[C@H](CSSC[C@H](NC(=O)[C@H](CC(C)C)NC(=O)[C@@H](NC(=O)[C@H](CCC(=O)O)NC(=O)[C@@H]3CCCN3C(=O)CN)[C@@H](C)O)C(=O)NCC(=O)N[C@@H](C)C(=O)N[C@@H](CCC(=O)O)C(=O)N[C@@H](CC(C)C)C(=O)N[C@@H](C(C)C)C(=O)N[C@@H](CC(=O)O)C(=O)N[C@@H](C)C(=O)N[C@@H](CC(C)C)C(=O)N[C@@H](Cc3ccc(O)cc3)C(=O)N[C@@H](CC(C)C)C(=O)N[C@@H](C(C)C)C(=O)N[C@H](C(=O)NCC(=O)N[C@@H](CC(=O)O)C(=O)N[C@@H](CCCNC(=N)N)C(=O)NCC(=O)N[C@@H](Cc3ccccc3)C(=O)N[C@@H](Cc3ccc(O)cc3)C(=O)N[C@@H](Cc3ccccc3)C(=O)N[C@@H](CC(N)=O)C(=O)N[C@@H](CCCCN)C(=O)N3CCC[C@H]3C(=O)N[C@H](C(N)=O)[C@@H](C)O)CSSC[C@@H](C(=O)N[C@@H](C)C(N)=O)NC(=O)[C@H](Cc3ccc(O)cc3)NC(=O)[C@H](CCSC)NC(=O)[C@H](CCC(=O)O)NC(=O)[C@H](CC(C)C)NC(=O)[C@H](CCCNC(=N)N)NC(=O)[C@H](CCCNC(=N)N)NC(=O)[C@H](CC(C)C)NC(=O)[C@H](CC(=O)O)NC2=O)NC1=O)C(C)C [IGF1(Y^B16L^B17)(AlaPro)^A-1,0]	–	–	–	insulin receptor binding, in words (Insulin Receptor [3]): substantially reduced affinity for the insulin receptor
CC[C@H](C)[C@H](NC(=O)CN)C(=O)N[C@H](C(=O)N[C@@H](CC(=O)O)C(=O)N[C@@H](CCC(=O)O)C(=O)N[C@H]1CSSC[C@@H]2NC(=O)[C@H](CO)NC(=O)[C@H](CCCNC(=N)N)NC(=O)[C@H](Cc3ccccc3)NC(=O)[C@H](CSSC[C@H](NC(=O)[C@H](CC(C)C)NC(=O)[C@@H](NC(=O)[C@H](CCC(=O)O)NC(=O)[C@@H]3CCCN3C(=O)CN)[C@@H](C)O)C(=O)NCC(=O)N[C@@H](C)C(=O)N[C@@H](CC(=O)O)C(=O)N[C@@H](CC(C)C)C(=O)N[C@@H](C(C)C)C(=O)N[C@@H](CC(=O)O)C(=O)N[C@@H](C)C(=O)N[C@@H](CC(C)C)C(=O)N[C@@H](Cc3ccc(O)cc3)C(=O)N[C@@H](CC(C)C)C(=O)N[C@@H](C(C)C)C(=O)N[C@H](C(=O)NCC(=O)N[C@@H](CC(=O)O)C(=O)N[C@@H](CCCNC(=N)N)C(=O)NCC(=O)N[C@@H](Cc3ccccc3)C(=O)N[C@@H](Cc3ccc(O)cc3)C(N)=O)CSSC[C@@H](C(=O)N[C@@H](C)C(=O)O)NC(=O)[C@H](Cc3ccc(O)cc3)NC(=O)[C@H](CCSC)NC(=O)[C@H](CCC(=O)O)NC(=O)[C@H](CC(C)C)NC(=O)[C@H](CCCNC(=N)N)NC(=O)[C@H](CCCNC(=N)N)NC(=O)[C@H](CC(C)C)NC(=O)[C@H](CC(=O)O)NC2=O)NC1=O)C(C)C [IGF-1 A:B(D10Y16L17) DPI A-COOH]	9.75	–	–	–
CC[C@H](C)[C@H](NC(=O)CN)C(=O)N[C@H](C(=O)N[C@@H](CC(=O)O)C(=O)N[C@@H](CCC(=O)O)C(=O)N[C@@H](C)C(=O)N[C@@H](C)C(=O)N[C@@H](Cc1ccccc1)C(=O)N[C@@H](CCCNC(=N)N)C(=O)N[C@@H](CO)C(=O)N[C@@H](C)C(=O)N[C@@H](CC(=O)O)C(=O)N[C@@H](CC(C)C)C(=O)N[C@@H](CCCNC(=N)N)C(=O)N[C@@H](CCCNC(=N)N)C(=O)N[C@@H](CC(C)C)C(=O)N[C@@H](CCC(=O)O)C(=O)N[C@@H](CCSC)C(=O)N[C@@H](Cc1ccc(NC(=O)CN(C)C(=O)[C@@H](N)CCCCN)cc1)C(=O)N[C@@H](C)C(=O)N[C@@H](C)C(N)=O)C(C)C [K Sar] (H-GIVDEAAFRSADLRRLEM[Phe(4-NH2)]([Sar-Lys])AA-NH2)	–	21.8 h	21.8 h	–
CCCCCCN(CC(=O)Nc1ccc(C[C@H](NC(=O)[C@H](CCSC)NC(=O)[C@H](CCC(=O)O)NC(=O)[C@H](CC(C)C)NC(=O)[C@H](CCCNC(=N)N)NC(=O)[C@H](CCCNC(=N)N)NC(=O)[C@H](CC(C)C)NC(=O)[C@H](CC(=O)O)NC(=O)[C@H](C)NC(=O)[C@H](CO)NC(=O)[C@H](CCCNC(=N)N)NC(=O)[C@H](Cc2ccccc2)NC(=O)[C@H](C)NC(=O)[C@H](C)NC(=O)[C@H](CCC(=O)O)NC(=O)[C@H](CC(=O)O)NC(=O)[C@@H](NC(=O)[C@@H](NC(=O)CN)[C@@H](C)CC)C(C)C)C(=O)N[C@@H](C)C(=O)N[C@@H](C)C(N)=O)cc1)C(=O)[C@H](N)CCCCN [dK N-hexyl Gly] (H-GIVDEAAFRSADLRRLEM[Phe(4-NH2)](X1)AA-NH2; N-terminus assumed)	–	–	–	half-life ([2]; buffer, pH 7.4): 10.6 h
